# “Also recorded” adds a separate entry of the source.
# System: ear of the BALB/c mouse
# Test: Tolerance study: anti-irritant in preventive treatment before topical Differin gel, ear thickness (edema)
# Format: in vivo
# Details: anti-irritant applied before Differin gel
# Protocol: The anti-irritants used are formulated, unless otherwise indicated, in an ethanol/water (50:50) vehicle at the concentrations shown in the table below.
# The goal of the present study is to compare the irritant power of a reference gel, comprising 0.1% adapalene, when this treatment is preceded or not preceded by treatment with an anti-irritant.
# The treatment consists of a daily topical application (20 μl) of anti-irritant, formulated in an aqueous/alcoholic vehicle (50% ethanol and 50% water by volume), on the internal face of the right ear of BALB/c mice divided into 15 groups (female mice approximately 9 weeks old), followed by a topical application (20 μl) of Differin® gel (reference gel comprising 0.1% adapalene) at the rate of one application of each formulation per day for 6 days.
# Evaluation is carried out by measurements of the thickness of the ear by means of the Oditest and by clinical observation of the animals from the 2nd to 19th day.
row,Compound,effect of the anti-irritant on the irritation caused by Differin gel (in words)
1,O=C(O)CN(CCN(CC(=O)O)CC(=O)O)CC(=O)O [EDTA],effective in reducing the irritation
2,"NC(=O)NC1NC(=O)NC1=O (stereo not drawn) [allantoin, Allantoin]",effective in reducing the irritation
3,"CC1(C)[C@@H](O)CC[C@]2(C)[C@H]3C(=O)C=C4[C@@H]5C[C@@](C)(C(=O)O)CC[C@]5(C)CC[C@@]4(C)[C@]3(C)CC[C@@H]12 [enoxolone, Enoxolone, reference compound]",virtually no effect; also recorded: do not have an effect
4,"O.O.O.O.O.O.[Cl-].[Cl-].[Sr+2] [strontium chloride hexahydrate, Strontium chloride hexahydrate]",effective in reducing the irritation
5,"O=[N+]([O-])[O-].O=[N+]([O-])[O-].[Sr+2] [strontium nitrate, Strontium nitrate]",effective in reducing the irritation
6,"O=S(=O)([O-])[O-].[Zn+2] [zinc sulfate, Zinc sulfate]",a reduction in the irritation; also recorded: effective in reducing the irritation
7,Potassium disodium salt of β-glycyrrhizic acid [reference compound],virtually no effect; also recorded: do not have an effect
8,Sodium choleate,slightly reduces; also recorded: effective in reducing the irritation

# Same assay, conditions: anti-irritant solution followed by Differin gel, D1-D6, AUC D2-D19
row,Compound,% AUC inhibition vs Differin (reduction of edema/irritation due to Differin gel)
1,"O=S(=O)([O-])[O-].[Zn+2] [zinc sulfate, Zinc sulfate]",25%
2,Sodium choleate,9%

# System: comedones on the back of the Rhino mouse
# Test: Comedolytic activity of Differin gel alone or preceded by an anti-irritant on the Rhino mouse
# Format: in vivo
# Details: split treatment, 18 days
# Source text: The goal of the present study is to compare the comedolytic activity of Differin® gel (reference gel comprising 0.1% adapalene) whether this treatment is preceded or not preceded by a treatment with an anti-irritant.
row,Compound,effect on the comedolytic activity of Differin gel (in words)
1,"NC(=O)NC1NC(=O)NC1=O (stereo not drawn) [allantoin, Allantoin]",does not reduce the comedolytic activity
2,"O=[N+]([O-])[O-].O=[N+]([O-])[O-].[Sr+2] [strontium nitrate, Strontium nitrate]",does not reduce the comedolytic activity
